Measurements reported in patent US6693105B1, “Hydroxyl-containing compounds” (Cell Therapeutics, Inc., priority 1992, dated 2004).

Key:
IL-12 signaling = test: IL-12 dependent in vitro T-helper cell (Th1) differentiation assay; type: cell-based; details: anti-CD3 stimulated splenic T cells, 5 U/ml IL-12, compound present during T cell activation
Description: This example illustrates the assay used to determine the effect of compounds of this invention in suppressing Th1 differentiation in vitro by blocking IL-12 signaling. Compounds are tested in an IL-12 dependent in vitro T-helper cell differentiation assay as described in LeGross et al., J. Exp. Med., 172:921-929 (1990). Recombinant IL-12 is used to induce Th1 differentiation. Splenic T cells are purified utilizing the antibodies RA3-3A1/6.1 (anti-B220), J11d and MAR8.5 (anti-rat kappa chain) to deplete the B cells via complement mediated toxicity following the procedure set forth in Klaus et al., J. Immunol., 149:1867-1875 (1992). Splenic T cells are stimulated at 5×10^5/ml with insoluble anti-CD3 alone (145-2C11, Pharmingen, San Diego, Calif.), or anti-CD3 and 5 U/ml IL-12, with and without each inventive compound. After seven days, equal numbers of viable cells are restimulated for 24 hours with anti-CD3 without the inventive compounds, and the supernatants are collected and assayed for IFN-γ production. IFN-γ and IL-4 levels are measured by Intertest kits from Genzyme specific for IFN-γ and IL-4.
Th1 differentiation is induced by culturing anti-CD3 stimulated T cells in the presence of exogenous IL-12. […] Neither the viability or recovery of T cells after one week of culture in the presence of the compound.

[1] = tested on: PBMC (peripheral blood mononuclear cells); test: two-way mixed lymphocyte reaction (MLR), proliferative response of PBMC to allogeneic stimulation; type: cell-based, human; details: for IC50: Homo sapiens, PBMC, mixed lymphocyte reaction; for immune modulating activity compared with PTX: two-way MLR, FIG. 1
Description: Various in vitro assays can be used to measure effects of the inventive compounds to module immune activity and have antitumor activity using a variety of cellular types. For example, a mixed lymphocyte reaction (MLR) provides a valuable screening tool to determine biological activity of each inventive compound. In the MLR, PBMCs (peripheral blood mononuclear cells) are obtained by drawing whole blood from healthy volunteers in a heparinized container and diluted with an equal volume of hanks balanced salt solution (HBSS). This mixture is layered on a sucrose density gradient, such as a Ficoll-Hypaque® gradient (specific gravity 1.08), and centrifuged at 1000×g for 25 minutes at room temperature or cooler. PBMC are obtained from a band at a plasma-Ficoll interface, separated and washed at least twice in a saline solution, such as HBSS. Contaminating red cells are lysed, such as by ACK lysis for 10 min at 37° C., and the PBMCs are washed twice in HBSS. The pellet of purified PBMCs is resuspended in complete medium, such as RPMI 1640 plus 20% human inactivated serum. Proliferative response of PBMC to allogeneic stimulation is determined in a two-way MLR performed in a 96-well microtiter plate. Briefly, approximately 10^5 test purified PBMC cells in […] complete medium are co-cultured with approximately 10^5 autologous (control culture) or allogeneic (stimulated culture) PBMC cells, wherein the allogeneic cells are from HLA disparate individuals. Varying doses of compounds (drug) are added at the time of addition of cells to the microtiter plate. The cultures are incubated for 6 days at 37° C. in a 5% CO2 atmosphere. At the conclusion of the incubation tritiated thymidine is added (for example, 1 µCi/well of 40 to 60 Ci/mmole) and proliferation determined by liquid scintillation counting.
This example illustrates the effect of compounds nos. 1551 and 1559 as an immune modulator. […] 1551 and 1559 (see above for chemical names and structures).

human stromal cells = test: PDGF-induced proliferation of human stromal cells; type: cell-based; details: 50 ng/ml PDGF-BB, drug added one hour before, tritiated thymidine, FIG. 2
Description: (§1) Another assay for measuring activity of the inventive compounds involves determining PDGF, FGF or VEGF proliferative response using either mouse NIH-3T3 (Balb) cells or human-derived stromal cells. Human stromal cells are plated (e g., about 2000 cells per well) in defined media (e.g., 69% McCoy's, 12.5% fetal calf serum, 12.5% horse serum, 1% antibiotics, 1% glutamine, 1% vitamin supplement, 0.8% essential amino acids, 1% sodium pyruvate, 1% sodium bicarbonate, 0.4% non-essential amino acids and 0.36% hydrocortisone). Two to three days later, the stromal cells are starved in serum-free media. Twenty four hours later, the cells are treated with a stimulating agent, such as PDGF-AA, PDGF-BB or basic FGF (fibroblast growth factor) with or without IL-1 or TNF, and tritiated thymidine. Cell proliferation is determined by liquid scintillation counting.
This example illustrates a comparison of compounds nos. 1551 and 1559 on PDGF-induced (platelet derived growth factor) proliferation of human stromal cells. Human stromal cells were starved in serum-free media for 24 hours and then stimulated with 50 ng/ml of PDGF-BB. The drugs were added at various indicated concentrations one hour prior to PDGF stimulation. Tritiated thymidine was added at the time of PDGF stimulation. The cells were harvested and counted by liquid scintillation 24 hours after stimulation with PDGF. […]

murine thymocytes = test: murine thymocyte proliferation co-stimulated by ConA and IL-2; type: cell-based, Balb/C mice; details: Mus musculus, ConA 0.25 mg/ml and IL-2 15 U/ml, drug added two hours before, 4 days
Description: This example illustrates dose response curves used to generate 50% inhibition concentration (IC50) of inventive compounds nos. 1551 and 1564 for murine thymocyte proliferation, co-stimulated by Concanavalin A (ConA) and interleukin-2 alpha (IL-2). ConA, used to activate CD3, along with IL-2 co-stimulation, induces T-cell proliferation and differentiation. Thymuses, obtained from normal, female Balb/C mice, were dissociated and plated into 96-well plates at a density of 2×10^5 cells/well. ConA (0.25 mg/ml) and IL-2 (15 U/ml) were added to the wells. The cells were incubated for 4 days at 37° C. On day 4, the cells were pulsed with tritiated thymidine and incubated for an additional 4 hours. The amount of tritiated thymidine dye incorporated by the harvested cells was determined in a liquid scintillation counter. Drug doses (shown in FIGS. 7A and 7B) were added two hours prior to ConA and IL-2 activation. Background counts were less than 200 cpm. […] 1551 and 1564 are 28 and 49 μM.

VCAM = test: TNF-induced cell surface expression of VCAM in HUVEC, flow cytometry; type: cell-based, human; details: for % of cells in gate (VCAM expression): 20 ng/ml TNF for 20 hours, 1559 at 0.25 mM one hour prior to TNF, TNF alone 34.5%, non-induced 0.4%
Description: This example illustrates the effect of compound no. 1559 on inhibiting cell surface expression of VCAM in human umbilical vein endothelial cells (HUVEC). The HUVEC cells were stimulated with 20 ng/ml TNF- for 20 hours and then stained for immunofluorescence using a monoclonal antibody recognizing VCAM, followed by a goat anti-mouse antibody conjugated to phycoerythrin. The cells were analyzed for antibody binding using flow cytometry. […] The top left histogram is non-TNF induced expression of VCAM (% of cells in gate A is 0.4%). […] 1559 (0.25 mM), one hour prior to TNF addition (% of cells in gate C is 24%).
This example illustrates the effect of compound no. 1559 on inhibiting cell surface expression of VCAM in HUVEC cells. The cells were stimulated with TNF- (20 ng/ml) for 20 hours and then stained for immunofluorescence using a monoclonal antibody recognizing VCAM, followed by a goat anti-mouse antibody conjugated to phycoerythrin. The cells were analyzed for antibody binding using flow cytometry. […] The mean fluorescence levels were decreased by compound no. 1559 treatment (1.7 fold decrease) when compared with control levels (TNF treatment, no drug).

[2] = tested on: LD-2 cells, a human malignant melanoma cell line; test: cytotoxicity on LD-2 cells (BCECF viability stain); type: cell-based; details: various concentrations, FIG. 3
Description: (§2) This example provide data from an experiment measuring compound no. 1559 cytotoxicity on LD-2 cells, a human malignant melanoma cell line. The cells were treated with various concentrations of compound no. 1559 and later stained for cell viability with a fluorescence stain (BCECF) and analyzed using a Milipore fluorescence plate reader.

NIH-3T3 cells = test: cytotoxicity on NIH-3T3 cells (BCECF viability stain); type: cell-based, mouse; details: various concentrations, FIG. 4
Description: as §2, with “provides” for “provide”, “NIH-3T3 cells and their Ras transformed counterpart, NIH-3T3 Ras cells.” for “LD-2 cells, a human malignant melanoma cell line.”

NIH-3T3 Ras cells = test: cytotoxicity on NIH-3T3 Ras cells (BCECF viability stain); type: cell-based, mouse; details: various concentrations, FIG. 4
Description: as §2, with “provides” for “provide”, “NIH-3T3 cells and their Ras transformed counterpart, NIH-3T3 Ras cells.” for “LD-2 cells, a human malignant melanoma cell line.”

Balb/3T3 cells = test: PDGF-BB-induced proliferation of Balb/3T3 cells; type: cell-based, mouse; details: tritiated thymidine, FIGS. 8A and 9A
Description: as §1
Balb/3T3 cells respond vigorously to PDGF stimulation, and are useful in vitro models for further study of PDGF-induced proliferation. Disregulated PDGF-proliferative response has been linked to a variety of diseases, including, e.g., restenosis, atherosclerosis, fibrosis, and tumor cell angiogenesis. Cells were plated in low serum-containing medium for 24 hours prior to stimulation with various concentrations (as reported in FIGS. 8A and 9A) of inventive compounds nos.2556 and 3504 (FIGS. 8A and 9A, respectively). […]

CC(O)CCCCCCn1c(=O)c2c(ncn2C)n(C)c1=O (centres unmarked) [Compound 1536, 1-(7-Hydroxyoctyl)-3,7-dimethylxanthine]
inhibition of Th1 differentiation enhanced by exogenous IL-12 (IL-12 signaling): inhibited Th1 differentiation | IC50 [1]: 250 µM

Cn1cnc2c1c(=O)n(CCCCCCC(O)CO)c(=O)n2C (centres unmarked) [Compound 1538, 1-(7,8-Dihydroxyoctyl)-3,7-dimethylxanthine]
IC50 [1]: > 500 µM

Cn1cnc2c1c(=O)n(CC(O)CO)c(=O)n2C (centres unmarked) [Compound 1540, 1-(2,3-Dihydroxypropyl)-3,7-dimethylxanthine]
IC50 [1]: > 500 µM

CC(O)CCCn1c(=O)c2c(ncn2C)n(C)c1=O (centres unmarked) [Compound 1542, 1-(4-Hydroxypentyl)-3,7-dimethylxanthine]
IC50 [1]: > 500 µM

Cn1cnc2c1c(=O)n(CCCCCCCO)c(=O)n2C [Compound 1545, 1-(7-Hydroxyheptyl)-3,7-dimethylxanthine]
IC50 [1]: 300 µM

Cn1cnc2c1c(=O)n(CCCCCCCCO)c(=O)n2C [Compound 1546, 1-(8-Hydroxyoctyl)-3,7-dimethylxanthine]
IC50 [1]: 320 µM

CC(O)CCCCCCCn1c(=O)c2c(ncn2C)n(C)c1=O (centres unmarked) [Compound 1551, 1-(8-Hydroxynonyl)-3,7-dimethylxanthine]
inhibition of PDGF-induced stimulation (proliferation) (human stromal cells): inhibited PDGF-induced stimulation | IC50 (murine thymocytes): 28 µM | IC50 [1]: 120 µM | immune modulating activity compared with PTX [1]: more effective and more potent than PTX

Cn1cnc2c1c(=O)n(CCCCCCO)c(=O)n2C [Compound 1556, 1-(6-Hydroxyhexyl)-3,7-dimethylxanthine]
IC50 [1]: > 500 µM

Cn1cnc2c1c(=O)n(CCCCCCCCCCO)c(=O)n2C [Compound 1559, 1-(10-Hydroxydecyl)-3,7-dimethylxanthine]
% of cells in gate (VCAM expression) (VCAM): 24% | decrease of mean fluorescence levels (VCAM) compared with control (TNF treatment, no drug) (VCAM; TNF 20 ng/ml for 20 hours, FIG. 6): 1.7 fold decrease | cytotoxicity [2]: cytotoxic at higher concentrations | cytotoxicity (NIH-3T3 cells): cytotoxic at higher concentrations | inhibition of PDGF-induced stimulation (proliferation) (human stromal cells): inhibited PDGF-induced stimulation | IC50 [1]: 150 µM | immune modulating activity compared with PTX [1]: more effective and more potent than PTX | cytotoxicity (NIH-3T3 Ras cells): cytotoxic at higher concentrations

Cn1cnc2c1c(=O)n(CCCCCCCC(O)CO)c(=O)n2C (centres unmarked) [Compound 1561, 1-(8,9-Dihydroxynonyl)-3,7-dimethylxanthine]
IC50 [1]: 185 µM

Cn1cnc2c1c(=O)n(CCCCCCCCC(O)CO)c(=O)n2C (centres unmarked) [Compound 1564, 1-(9,10-Dihydroxydecyl)-3,7-dimethylxanthine]
IC50 (murine thymocytes): 49 µM | IC50 [1]: 210 µM

Cn1cnc2c1c(=O)n(CCCCCCCCCCCC(O)CO)c(=O)n2C (centres unmarked) [Compound 2556]
inhibition of PDGF-induced proliferation (Balb/3T3 cells): inhibited PDGF-induced proliferation

CC(O)CCCCCCCCCCCCn1c(=O)c2c(ncn2C)n(C)c1=O (centres unmarked) [Compound 3504, 1-(13-Hydroxytetradecyl)-3,7-dimethylxanthine]
inhibition of PDGF-induced proliferation (Balb/3T3 cells): inhibited PDGF-induced proliferation

CC(=O)CCCCn1c(=O)c2c(ncn2C)n(C)c1=O [PTX, 1-(5-oxohexyl)-3,7-dimethylxanthine, reference compound]
% of cells in gate (VCAM expression) (VCAM): 36.8%
